How the values were obtained:
human TRPM8 = experiment: TRPM8 Protocol-FLIPR Assay (intracellular Ca2+); format: cell-based; settings: for TRPM8 Time Course Activity 50 sec % of WS5 / TRPM8 Time Course Activity 3 min % of WS5 / TRPM8 Time Course Activity 5 min % of WS5 / TRPM8 Time Course Activity 10 min % of WS5: vs 30 uM WS-5; for TRPM8 Time Course Activity 50 sec: fluorescence at 50 sec; for TRPM8 Time Course Activity 3 min: fluorescence at 3 min; for TRPM8 Time Course Activity 5 min: fluorescence at 5 min; for TRPM8 Time Course Activity 10 min: fluorescence at 10 min
[1] = Sensation reported by panelists; format: in vivo; settings: perceived sensation, in words

CC(C)[C@@H]1CC[C@@H](C)C[C@H]1C(=O)NCC(NC(=O)[C@@H](C)N)c1ccccc1 (single isomer, unassigned) [Compound 28 fraction 2]
TRPM8 Time Course Activity 50 sec % of WS5 (human TRPM8; dose 6.1 nM): 19.3% | TRPM8 Time Course Activity 3 min % of WS5 (human TRPM8; dose 6.1 nM): 46.0% | TRPM8 Time Course Activity 5 min % of WS5 (human TRPM8; dose 6.1 nM): 50.3% | TRPM8 Time Course Activity 10 min % of WS5 (human TRPM8; dose 6.1 nM): 50.6% | TRPM8 Time Course Activity 50 sec (human TRPM8; dose 6.1 nM): 1944.0 | TRPM8 Time Course Activity 3 min (human TRPM8; dose 6.1 nM): 4350.0 | TRPM8 Time Course Activity 5 min (human TRPM8; dose 6.1 nM): 4763.0 | TRPM8 Time Course Activity 10 min (human TRPM8; dose 6.1 nM): 4844.0 | TRPM8 Time Course Activity 50 sec % of WS5 (human TRPM8; dose 12.2 nM): 18.0% | TRPM8 Time Course Activity 3 min % of WS5 (human TRPM8; dose 12.2 nM): 57.6% | TRPM8 Time Course Activity 5 min % of WS5 (human TRPM8; dose 12.2 nM): 65.7% | TRPM8 Time Course Activity 10 min % of WS5 (human TRPM8; dose 12.2 nM): 71.1% | TRPM8 Time Course Activity 50 sec (human TRPM8; dose 12.2 nM): 1814.0 | TRPM8 Time Course Activity 3 min (human TRPM8; dose 12.2 nM): 5446.0 | TRPM8 Time Course Activity 5 min (human TRPM8; dose 12.2 nM): 6224.0 | TRPM8 Time Course Activity 10 min (human TRPM8; dose 12.2 nM): 6809.0 | TRPM8 Time Course Activity 50 sec % of WS5 (human TRPM8; dose 24.4 nM): 23.0% | TRPM8 Time Course Activity 3 min % of WS5 (human TRPM8; dose 24.4 nM): 68.2% | TRPM8 Time Course Activity 5 min % of WS5 (human TRPM8; dose 24.4 nM): 76.3% | TRPM8 Time Course Activity 10 min % of WS5 (human TRPM8; dose 24.4 nM): 82.0% | TRPM8 Time Course Activity 50 sec (human TRPM8; dose 24.4 nM): 2311.0 | TRPM8 Time Course Activity 3 min (human TRPM8; dose 24.4 nM): 6441.0 | TRPM8 Time Course Activity 5 min (human TRPM8; dose 24.4 nM): 7226.0 | TRPM8 Time Course Activity 10 min (human TRPM8; dose 24.4 nM): 7848.0 | TRPM8 Time Course Activity 50 sec % of WS5 (human TRPM8; dose 48.8 nM): 24.9% | TRPM8 Time Course Activity 3 min % of WS5 (human TRPM8; dose 48.8 nM): 81.7% | TRPM8 Time Course Activity 5 min % of WS5 (human TRPM8; dose 48.8 nM): 89.6% | TRPM8 Time Course Activity 10 min % of WS5 (human TRPM8; dose 48.8 nM): 97.0% | TRPM8 Time Course Activity 50 sec (human TRPM8; dose 48.8 nM): 2502.0 | TRPM8 Time Course Activity 3 min (human TRPM8; dose 48.8 nM): 7721.0 | TRPM8 Time Course Activity 5 min (human TRPM8; dose 48.8 nM): 8488.0 | TRPM8 Time Course Activity 10 min (human TRPM8; dose 48.8 nM): 9289.0 | TRPM8 Time Course Activity 50 sec % of WS5 (human TRPM8; dose 97.6 nM): 49.8% | TRPM8 Time Course Activity 3 min % of WS5 (human TRPM8; dose 97.6 nM): 106.9% | TRPM8 Time Course Activity 5 min % of WS5 (human TRPM8; dose 97.6 nM): 113.5% | TRPM8 Time Course Activity 10 min % of WS5 (human TRPM8; dose 97.6 nM): 118.8% | TRPM8 Time Course Activity 50 sec (human TRPM8; dose 97.6 nM): 5007.0 | TRPM8 Time Course Activity 3 min (human TRPM8; dose 97.6 nM): 10101.0 | TRPM8 Time Course Activity 5 min (human TRPM8; dose 97.6 nM): 10747.0 | TRPM8 Time Course Activity 10 min (human TRPM8; dose 97.6 nM): 11375.0 | TRPM8 Time Course Activity 50 sec % of WS5 (human TRPM8; dose 195 nM): 72.4% | TRPM8 Time Course Activity 3 min % of WS5 (human TRPM8; dose 195 nM): 121.5% | TRPM8 Time Course Activity 5 min % of WS5 (human TRPM8; dose 195 nM): 126.8% | TRPM8 Time Course Activity 10 min % of WS5 (human TRPM8; dose 195 nM): 129.8% | TRPM8 Time Course Activity 50 sec (human TRPM8; dose 195 nM): 7287.0 | TRPM8 Time Course Activity 3 min (human TRPM8; dose 195 nM): 11477.0 | TRPM8 Time Course Activity 5 min (human TRPM8; dose 195 nM): 12007.0 | TRPM8 Time Course Activity 10 min (human TRPM8; dose 195 nM): 12427.0 | TRPM8 Time Course Activity 50 sec % of WS5 (human TRPM8; dose 390 nM): 87.1% | TRPM8 Time Course Activity 3 min % of WS5 (human TRPM8; dose 390 nM): 126.5% | TRPM8 Time Course Activity 5 min % of WS5 (human TRPM8; dose 390 nM): 129.9% | TRPM8 Time Course Activity 10 min % of WS5 (human TRPM8; dose 390 nM): 136.0% | TRPM8 Time Course Activity 50 sec (human TRPM8; dose 390 nM): 8766.0 | TRPM8 Time Course Activity 3 min (human TRPM8; dose 390 nM): 11955.0 | TRPM8 Time Course Activity 5 min (human TRPM8; dose 390 nM): 12301.0 | TRPM8 Time Course Activity 10 min (human TRPM8; dose 390 nM): 13026.0 | TRPM8 Time Course Activity 50 sec % of WS5 (human TRPM8; dose 781 nM): 103.7% | TRPM8 Time Course Activity 3 min % of WS5 (human TRPM8; dose 781 nM): 136.4% | TRPM8 Time Course Activity 5 min % of WS5 (human TRPM8; dose 781 nM): 138.3% | TRPM8 Time Course Activity 10 min % of WS5 (human TRPM8; dose 781 nM): 147.4% | TRPM8 Time Course Activity 50 sec (human TRPM8; dose 781 nM): 10428.0 | TRPM8 Time Course Activity 3 min (human TRPM8; dose 781 nM): 12887.0 | TRPM8 Time Course Activity 5 min (human TRPM8; dose 781 nM): 13091.0 | TRPM8 Time Course Activity 10 min (human TRPM8; dose 781 nM): 14116.0 | TRPM8 Time Course Activity 50 sec % of WS5 (human TRPM8; dose 1.563 uM): 112.6% | TRPM8 Time Course Activity 3 min % of WS5 (human TRPM8; dose 1.563 uM): 134.0% | TRPM8 Time Course Activity 5 min % of WS5 (human TRPM8; dose 1.563 uM): 136.8% | TRPM8 Time Course Activity 10 min % of WS5 (human TRPM8; dose 1.563 uM): 145.1% | TRPM8 Time Course Activity 50 sec (human TRPM8; dose 1.563 uM): 11331.0 | TRPM8 Time Course Activity 3 min (human TRPM8; dose 1.563 uM): 12663.0 | TRPM8 Time Course Activity 5 min (human TRPM8; dose 1.563 uM): 12954.0 | TRPM8 Time Course Activity 10 min (human TRPM8; dose 1.563 uM): 13892.0 | TRPM8 Time Course Activity 50 sec % of WS5 (human TRPM8; dose 3.125 uM): 116.9% | TRPM8 Time Course Activity 3 min % of WS5 (human TRPM8; dose 3.125 uM): 134.4% | TRPM8 Time Course Activity 5 min % of WS5 (human TRPM8; dose 3.125 uM): 136.6% | TRPM8 Time Course Activity 10 min % of WS5 (human TRPM8; dose 3.125 uM): 145.1% | TRPM8 Time Course Activity 50 sec (human TRPM8; dose 3.125 uM): 11757.0 | TRPM8 Time Course Activity 3 min (human TRPM8; dose 3.125 uM): 12699.0 | TRPM8 Time Course Activity 5 min (human TRPM8; dose 3.125 uM): 12937.0 | TRPM8 Time Course Activity 10 min (human TRPM8; dose 3.125 uM): 13890.0 | TRPM8 Time Course Activity 50 sec % of WS5 (human TRPM8; dose 6.25 uM): 121.6% | TRPM8 Time Course Activity 3 min % of WS5 (human TRPM8; dose 6.25 uM): 133.8% | TRPM8 Time Course Activity 5 min % of WS5 (human TRPM8; dose 6.25 uM): 136.2% | TRPM8 Time Course Activity 10 min % of WS5 (human TRPM8; dose 6.25 uM): 144.0% | TRPM8 Time Course Activity 50 sec (human TRPM8; dose 6.25 uM): 12236.0 | TRPM8 Time Course Activity 3 min (human TRPM8; dose 6.25 uM): 12644.0 | TRPM8 Time Course Activity 5 min (human TRPM8; dose 6.25 uM): 12891.0 | TRPM8 Time Course Activity 10 min (human TRPM8; dose 6.25 uM): 13793.0 | TRPM8 Time Course Activity 50 sec % of WS5 (human TRPM8; dose 12.5 uM): 123.4% | TRPM8 Time Course Activity 3 min % of WS5 (human TRPM8; dose 12.5 uM): 132.3% | TRPM8 Time Course Activity 5 min % of WS5 (human TRPM8; dose 12.5 uM): 135.2% | TRPM8 Time Course Activity 10 min % of WS5 (human TRPM8; dose 12.5 uM): 143.6% | TRPM8 Time Course Activity 50 sec (human TRPM8; dose 12.5 uM): 12415.0 | TRPM8 Time Course Activity 3 min (human TRPM8; dose 12.5 uM): 12501.0 | TRPM8 Time Course Activity 5 min (human TRPM8; dose 12.5 uM): 12801.0 | TRPM8 Time Course Activity 10 min (human TRPM8; dose 12.5 uM): 13755.0 | TRPM8 Time Course Activity 50 sec % of WS5 (human TRPM8; dose 25 uM): 120.4% | TRPM8 Time Course Activity 3 min % of WS5 (human TRPM8; dose 25 uM): 126.9% | TRPM8 Time Course Activity 5 min % of WS5 (human TRPM8; dose 25 uM): 129.7% | TRPM8 Time Course Activity 10 min % of WS5 (human TRPM8; dose 25 uM): 137.2% | TRPM8 Time Course Activity 50 sec (human TRPM8; dose 25 uM): 12110.0 | TRPM8 Time Course Activity 3 min (human TRPM8; dose 25 uM): 11993.0 | TRPM8 Time Course Activity 5 min (human TRPM8; dose 25 uM): 12284.0 | TRPM8 Time Course Activity 10 min (human TRPM8; dose 25 uM): 13140.0 | TRPM8 Time Course Activity 50 sec % of WS5 (human TRPM8; dose 50 uM): 125.7% | TRPM8 Time Course Activity 3 min % of WS5 (human TRPM8; dose 50 uM): 130.7% | TRPM8 Time Course Activity 5 min % of WS5 (human TRPM8; dose 50 uM): 133.5% | TRPM8 Time Course Activity 10 min % of WS5 (human TRPM8; dose 50 uM): 137.6% | TRPM8 Time Course Activity 50 sec (human TRPM8; dose 50 uM): 12648.0 | TRPM8 Time Course Activity 3 min (human TRPM8; dose 50 uM): 12352.0 | TRPM8 Time Course Activity 5 min (human TRPM8; dose 50 uM): 12644.0 | TRPM8 Time Course Activity 10 min (human TRPM8; dose 50 uM): 13179.0 | TRPM8 Time Course Activity 50 sec % of WS5 (human TRPM8; dose 100 uM): 121.7% | TRPM8 Time Course Activity 3 min % of WS5 (human TRPM8; dose 100 uM): 125.2% | TRPM8 Time Course Activity 5 min % of WS5 (human TRPM8; dose 100 uM): 127.5% | TRPM8 Time Course Activity 10 min % of WS5 (human TRPM8; dose 100 uM): 128.3% | TRPM8 Time Course Activity 50 sec (human TRPM8; dose 100 uM): 12246.0 | TRPM8 Time Course Activity 3 min (human TRPM8; dose 100 uM): 11826.0 | TRPM8 Time Course Activity 5 min (human TRPM8; dose 100 uM): 12074.0 | TRPM8 Time Course Activity 10 min (human TRPM8; dose 100 uM): 12287.0 | sensation (cooling, warming, burning) [1]: did not provide a cooling response

Source: patent US9974761B2, “Medications for deposition on biological surfaces” (The Procter & Gamble Company, priority 2014, dated 2018)
